Experimental data as given in patent publication US8435978B2, “Substituted sulfonamide compounds” (Gruenenthal GmbH, priority 2006, dated 2013).

Key:
B1R receptor of the rat = biological target: T1, B1R receptor of the rat (Rattus norvegicus, UniProt P97583); assay: Functional study on the bradykinin receptor 1 (B1R), FLIPR Ca2+ assay, rB1R cells; type: cell-based; details: agonist Des-Arg9-bradykinin 100 nM, % inhibition compared with the maximum achievable inhibition; for inhibition at 10 µM: CHO-K1, test substance 10 μM, read-out: B1R Antagonism, rat [10 μM] % Inhibition; for B1R Antagonism, rat [10 μM] % Inhibition: test substance 10 μM, rB1R CHO K1 cells
T1 construct: host or cells: CHO K1 cells (Chinese hamster ovary), stably transfected
T1 sequence (P97583 1-337): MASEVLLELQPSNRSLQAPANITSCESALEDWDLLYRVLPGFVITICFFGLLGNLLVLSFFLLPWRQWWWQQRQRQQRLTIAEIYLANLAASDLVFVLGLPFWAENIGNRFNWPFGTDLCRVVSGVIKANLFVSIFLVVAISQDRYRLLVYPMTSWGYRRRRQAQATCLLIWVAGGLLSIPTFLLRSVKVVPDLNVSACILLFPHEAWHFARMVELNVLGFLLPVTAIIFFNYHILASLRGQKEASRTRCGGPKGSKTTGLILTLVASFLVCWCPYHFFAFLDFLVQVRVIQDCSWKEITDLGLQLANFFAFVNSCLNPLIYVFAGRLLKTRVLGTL
Summary of the method: (§1)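 CHO K1 cells stably expressing human or rat B1R, Fluo-4-loaded; test compound 10 μM added first (activation % vs agonist), then after 10 min 0.5 nM Lys-Des-Arg9-bradykinin (human) or 100 nM Des-Arg9-bradykinin (rat). Ca2+ peak fluorescence by FLIPR; % inhibition relative to maximum achievable inhibition.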

human B1R receptor = biological target: T2, human B1R receptor (Homo sapiens, UniProt P46663); assay: Functional study on the bradykinin receptor 1 (B1R), FLIPR Ca2+ assay, hB1R cells; type: cell-based; details: agonist Lys-Des-Arg9-bradykinin 0.5 nM, % inhibition compared with the maximum achievable inhibition; for inhibition at 10 µM: CHO-K1, test substance 10 μM, read-out: B1R Antagonism, human [10 μM] % Inhibition; for B1R Antagonism, human [10 μM] % Inhibition: test substance 10 μM, hB1R CHO K1 cells
T2 construct: host or cells: CHO K1 cells (Chinese hamster ovary), stably transfected
T2 sequence (P46663 1-353): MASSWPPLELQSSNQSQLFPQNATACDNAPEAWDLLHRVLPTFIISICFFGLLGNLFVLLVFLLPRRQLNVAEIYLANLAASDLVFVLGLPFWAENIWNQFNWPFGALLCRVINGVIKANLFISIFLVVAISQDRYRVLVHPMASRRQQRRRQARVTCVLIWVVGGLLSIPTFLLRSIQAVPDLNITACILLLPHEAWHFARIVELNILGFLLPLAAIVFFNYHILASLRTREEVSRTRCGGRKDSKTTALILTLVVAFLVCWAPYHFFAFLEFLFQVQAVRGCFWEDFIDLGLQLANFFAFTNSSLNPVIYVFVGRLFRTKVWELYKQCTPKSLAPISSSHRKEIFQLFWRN
Summary of the method: as §1

inhibition at 10 µM (B1R receptor of the rat) [%] | inhibition at 10 µM (human B1R receptor) [%] | B1R Antagonism, rat [10 μM] % Inhibition (B1R receptor of the rat) [%] | B1R Antagonism, human [10 μM] % Inhibition (human B1R receptor) [%] | SMILES
99.8 | 105 | – | – | COc1cc(C)c(S(=O)(=O)N2CCCCC2COCC(=O)N2CCN(Cc3cnn(C)c3C)CC2)c(C)c1 (centres unmarked) [Example 198, 1-(4-((1,5-dimethyl-1H-pyrazol-4-yl)methyl)piperazin-1-yl)-2-((1-(4-methoxy-2,6-dimethylphenylsulfonyl)piperidin-2-yl)methoxy)ethanone]
101 | 104 | – | – | COc1cc(C)c(S(=O)(=O)N2CCCCC2COCC(=O)N2CCN(Cc3cnc(N(C)C)nc3)CC2)c(C)c1 (centres unmarked) [Example 199, 1-(4-((2-(dimethylamino)pyrimidin-5-yl)methyl)piperazin-1-yl)-2-((1-(4-methoxy-2,6-dimethylphenylsulfonyl)piperidin-2-yl)methoxy)ethanone]
98.7 | 102 | – | – | COc1cc(C)c(S(=O)(=O)N2CCCCC2COCC(=O)N2CCC(N3CCc4cc(F)ccc4C3)CC2)c(C)c1 (centres unmarked) [Example 200, 1-(4-(6-fluoro-3,4-dihydroisoquinolin-2(1H)-yl)piperidin-1-yl)-2-((1-(4-methoxy-2,6-dimethylphenylsulfonyl)piperidin-2-yl)methoxy)ethanone]
98.2 | 103 | – | – | COc1cc(C)c(S(=O)(=O)N2CCCCC2COCC(=O)N2CCC(c3ccncc3)CC2)c(C)c1 (centres unmarked) [Example 201, 2-((1-(4-methoxy-2,6-dimethylphenylsulfonyl)piperidin-2-yl)methoxy)-1-(4-(pyridin-4-yl)piperidin-1-yl)ethanone]
99.8 | 104 | – | – | COc1cc(C)c(S(=O)(=O)N2c3ccccc3CCC2COCC(=O)N2CCN(C3CCN(C)CC3)CC2)c(C)c1 (centres unmarked) [Example 202, 2-((1-(4-methoxy-2,6-dimethylphenylsulfonyl)-1,2,3,4-tetrahydroquinolin-2-yl)methoxy)-1-(4-(1-methylpiperidin-4-yl)piperazin-1-yl)ethanone]
98.8 | 103 | – | – | CN1CCC(N2CCN(C(=O)COCC3CCc4ccccc4N3S(=O)(=O)c3ccc4ccccc4c3)CC2)CC1 (centres unmarked) [Example 203, 1-(4-(1-methylpiperidin-4-yl)piperazin-1-yl)-2-((1-(naphthalen-2-ylsulfonyl)-1,2,3,4-tetrahydroquinolin-2-yl)methoxy)ethanone]
99 | 105 | – | – | COc1ccc(S(=O)(=O)N2c3ccccc3CCC2COCC(=O)N2CCN(C3CCN(C)CC3)CC2)cc1 (centres unmarked) [Example 204, 2-((1-(4-methoxyphenylsulfonyl)-1,2,3,4-tetrahydroquinolin-2-yl)methoxy)-1-(4-(1-methylpiperidin-4-yl)piperazin-1-yl)ethanone]
99.7 | 50 | – | – | COc1cc(C)c(S(=O)(=O)N2CCCCC2COCC(=O)NCc2ccccc2Oc2cnccn2)c(C)c1 (centres unmarked) [Example 205, 2-((1-(4-methoxy-2,6-dimethylphenylsulfonyl)piperidin-2-yl)methoxy)-N-(2-(pyrazin-2-yloxy)benzyl)acetamide]
– | – | 99.49 | 53.94 | COc1cc(C)c(S(=O)(=O)N2CCCCC2COCC(=O)N2Cc3ccncc3C2)c(C)c1 (centres unmarked) [Example 206, 2-((1-(4-methoxy-2,6-dimethylphenylsulfonyl)piperidin-2-yl)methoxy)-1-(1H-pyrrol[3,4-c]pyridin-2(3H)-yl)ethanone]
– | – | 100.16 | 101.93 | COc1cc(C)c(S(=O)(=O)N2CCCCC2COCC(=O)N2CCOC(c3cccnc3)C2)c(C)c1 (centres unmarked) [Example 207, 2-((1-(4-methoxy-2,6-dimethylphenylsulfonyl)piperidin-2-yl)methoxy)-1-(2-(pyridin-3-yl)morpholin)ethanone]
101 | 105 | – | – | COc1cc(C)c(S(=O)(=O)N2CCCCC2COCC(=O)N2CCC(Cc3cccnc3)C2)c(C)c1 (centres unmarked) [Example 208, 2-((1-(4-methoxy-2,6-dimethylphenylsulfonyl)piperidin-2-yl)methoxy)-1-(3-(pyridin-3-ylmethyl)pyrrolidin-1-yl)ethanone]
99.9 | 104 | – | – | COc1cc(C)c(S(=O)(=O)N2CCCCC2COCC(=O)N(C)CCC2CCC(N(C)C)CC2)c(C)c1 (centres unmarked) [Example 209, N-(2-(4-(dimethylamino)cyclohexyl)ethyl)-2-((1-(4-methoxy-2,6-dimethylphenylsulfonyl)piperidin-2-yl)methoxy)-N-methylacetamide]
96 | 106 | – | – | COc1ccc2cc(S(=O)(=O)N3CCCCC3COCC(=O)N3CCN(C4CCN(C)CC4)CC3)ccc2c1 (centres unmarked) [Example 210, 2-((1-(6-methoxynaphthalen-2-ylsulfonyl)piperidin-2-yl)methoxy)-1-(4-(1-methylpiperidin-4-yl)piperazin-1-yl)ethanone]
100 | 106 | – | – | COc1cc(C)c(S(=O)(=O)N2CCCCC2COCC(=O)N2CCC(N3CCn4cccc4C3)CC2)c(C)c1 (centres unmarked) [Example 211, 1-(4-(3,4-dihydropyrrolo[1,2-a]pyrazin-2(1H)-yl)piperidin-1-yl)-2-((1-(4-methoxy-2,6-dimethylphenylsulfonyl)piperidin-2-yl)methoxy)ethanone]
100 | 107 | – | – | COc1cc(C)c(S(=O)(=O)N2CCCCC2COCC(=O)N2CCN(CCC3CCN(C)CC3)CC2)c(C)c1 (centres unmarked) [Example 212, 2-((1-(4-methoxy-2,6-dimethylphenylsulfonyl)piperidin-2-yl)methoxy)-1-(4-(2-(1-methylpiperidin-4-yl)ethyl)piperazin-1-yl)ethanone]
94.5 | 59.7 | – | – | CN(CCC1CCC(N(C)C)CC1)C(=O)COCC1CCc2ccccc2N1S(=O)(=O)c1ccc(Cl)c(Cl)c1 (centres unmarked) [Example 213, 2-((1-(3,4-dichlorophenylsulfonyl)-1,2,3,4-tetrahydroquinolin-2-yl)methoxy)-N-(2-(4-(dimethylamino)cyclohexyl)ethyl)-N-methylacetamide]
102 | 101 | – | – | COc1cc(C)c(S(=O)(=O)N2CCCCC2COCC(=O)N2CCN(Cc3cnc(N(C)c4ccc(F)cc4)nc3)CC2)c(C)c1 (centres unmarked) [Example 214, 1-(4-((2-((4-fluorophenyl)(methyl)amino)pyrimidin-5-yl)methyl)piperazin-1-yl)-2-((1-(4-methoxy-2,6-dimethylphenylsulfonyl)piperidin-2-yl)methoxy)ethanone]
101 | 99.9 | – | – | COc1cc(C)c(S(=O)(=O)N2CCCCC2COCC(=O)N2CCc3cc(N4CCN(C)CC4)ccc3C2)c(C)c1 (centres unmarked) [Example 215, 2-((1-(4-methoxy-2,6-dimethylphenylsulfonyl)piperidin-2-yl)methoxy)-1-(6-(4-methylpiperazin-1-yl)-3,4-dihydroisoquinolin-2(1H)-yl)ethanone]
4.48 | -10.1 | – | – | CN(CCC1CCC(N2CCCC2)CC1)C(=O)COCC1CCc2ccccc2N1S(=O)(=O)c1ccc(Cl)c(Cl)c1 (centres unmarked) [Example 216, 2-((1-(3,4-dichlorophenylsulfonyl)-1,2,3,4-tetrahydroquinolin-2-yl)methoxy)-N-methyl-N-(2-(4-(pyrrolidin-1-yl)cyclohexyl)ethyl)acetamide]
96.2 | 5.04 | – | – | COc1ccc(S(=O)(=O)N2CCCCC2COCC(=O)N2CCN(Cc3cccc(C)c3)CC2)cc1 (centres unmarked) [Example 219, 2-((1-(4-methoxyphenylsulfonyl)piperidin-2-yl)methoxy)-1-(4-(3-methylbenzyl)piperazin-1-yl)ethanone]
86.3 | 15.3 | – | – | COc1ccc(S(=O)(=O)N2CCCCC2COCC(=O)N2CCN(c3nc(CCc4ccccc4)cs3)CC2)cc1 (centres unmarked) [Example 220, 2-((1-(4-methoxyphenylsulfonyl)piperidin-2-yl)methoxy)-1-(4-(4-phenethylthiazol-2-yl)piperazin-1-yl)ethanone]
89.6 | 38 | – | – | COc1ccc(S(=O)(=O)N2CCCCC2CCOCC(=O)N2CCN(CCN3CCCCC3)CC2)cc1 (centres unmarked) [Example 221, 2-(2-(1-(4-methoxyphenylsulfonyl)piperidin-2-yl)ethoxy)-1-(4-(2-(piperidin-1-yl)ethyl)piperazin-1-yl)ethanone]
